≈ marks a conversion by molar mass, not a printed value. Like-named read-outs stand apart in the source and are kept apart here.
How the values were obtained:
[1] = metabolic stability in mouse liver microsomes; assay type: in vitro ADME; conditions: for half-life at 1 μM: pH 7.4, mouse liver microsomes, read-out: Half-life in mouse micro
Procedure: (§1) Interesting compounds were also submitted for drug-drug interaction and metabolic stability assays. Low IC50s against specific cytochrome P450 isoforms may indicate the potential for a harmful drug interaction to occur in vivo with substrates of that isoform. A lack of metabolic stability in vitro may indicate potential metabolic instability in vivo, and, therefore, a shorter half-life. Drug interaction potential was evaluated in vitro using BD Gentest (Franklin Lakes, NJ) CYP450 inhibition kits as recommended by the manufacturer. Metabolic stability assessments were conducted using in vitro liver microsomes. […] The reaction is started with the addition of 1 U/mL glucose-6-phosphate dehydrogenase G6PD. The mixture is incubated on a shaking platform at 37°C, and aliquots are taken and quenched with the addition of an equal volume of cold acetonitrile at 0, 10, 20, 30, and 60 min. Samples are centrifuged at 3700 rpm for […] at 20°C to remove debris. Sample quantification is carried out by LC/MS, and metabolic half-life is calculated by log plots of the total ion chromatograph area remaining.

[2] = system: MDR1-transfected MDCK cell monolayers; test: in vitro; conditions: dog, MDCK-MDR1, 2 h, 5 μM, pH 7.4
Procedure: (§2) For this reason, the apparent permeability of selected compounds across MDR1-transfected MDCK cell monolayers was determined. This assay is an in vitro surrogate of the blood-brain barrier.
(§3) Permeability was determined by Absorption Systems (Exton, PA). MDR1-MDCK cell monolayers were grown to confluence on collagen-coated, microporous, polycarbonate membranes in 12-well Costar Transwell plates. […] The permeability assay buffer was Hanks Balanced Salt Solution containing 10 mM HEPES and 15 mM glucose at a pH of 7.4. A known p-glycoprotein inhibitor cyclosporin A (CSA) was also added to the assay buffer at 10 μM. Bovine serum albumin (1%) was added to the receiver well. The dosing solution concentrations of the test compounds were 5.0 μM in the assay buffer. All cell monolayers were first pre-incubated for 30 minutes with assay buffer. After 30 minutes, the buffer was removed, replaced with fresh buffer, and time was recorded as 0. […] Cell monolayers were dosed on the apical side (A-to-B) or basolateral side (B-to-A) and incubated at 37°C with 5% CO2 in a humidified incubator. After 2 hours, aliquots were taken from the receiver chambers. Samples were taken from the donor chamber at 0 and 2 hours. Each determination was performed in duplicate. The lucifer yellow flux was also measured for each monolayer to ensure no damage was inflicted to the cell monolayers during the flux period. All samples were assayed by LC/MS/MS using electrospray ionization.
(§4) Apparent permeability in the apical (A-B direction), PappA-B, and percent recovery are reported. Apparent permeability is a measure of the rate of transport across the cell monolayer. Percent recovery refers to the amount of compound recoverable at the end of the assay. Low recovery may indicate non-specific binding to assay plates, instability or accumulation in the cell pellet.
(§5) The apparent permeability, Papp, and percent recovery were calculated as follows:
(§6) Papp = (dCr/dt) × Vr/(A × C0) (1)
(§7) Percent Recovery = 100 × ((Vr × Cr^final) + (Vd × Cd^final))/(Vd × […]) (2)

[3] = in vitro; conditions: dog, MDCK-MDR1, pH 7.4
Procedure: as §2, §3, §4, §5, §6, §7

[4] = system: P. falciparum strain W2; test: labeled hypoxanthine susceptibility assay, P. falciparum W2; assay type: cell-based, Plasmodium falciparum; conditions: Plasmodium falciparum
Procedure: (§8) The in vitro activities of quinoline methanols against P. falciparum strains W2, D6, TM91C235, and TM90C2A were evaluated using the traditional labeled hypoxanthine assay of Desjardins et al as modified by Milhous et al. These four P. falciparum strains were selected since they have various levels of resistance to conventional anti-malarials.

[5] = in vitro; conditions: mouse
Procedure: (§9) General cytotoxicity was assessed by first determining LC50 's against a rodent macrophage (RAW) cell line using the 3-(4,5-dimethylthiazole-2-yl)-2,5-diphenyltetrazolium bromide (MTT) assay as described in one of our earlier studies. This screen was conducted to identify compounds that may require de-selection due to generalized toxicity. […] In vitro neurocytotoxicity was assessed by determining LC50s against primary mouse neurons using the MTT assay as described previously. Inhibition of the A2A and A1 receptors was determined at 200 nM in duplicate by Caliper Biosciences (Hanover, Maryland).

[6] = system: P. falciparum strain D6; test: labeled hypoxanthine susceptibility assay, P. falciparum D6; assay type: cell-based, Plasmodium falciparum; conditions: Plasmodium falciparum
Procedure: as §8

[7] = system: P. falciparum strain TM90C2A; test: labeled hypoxanthine susceptibility assay, P. falciparum TM90C2A; assay type: cell-based, Plasmodium falciparum
Procedure: as §8

[8] = system: P. falciparum strain TM91C235; test: labeled hypoxanthine susceptibility assay, P. falciparum TM91C235; assay type: cell-based, Plasmodium falciparum; conditions: Plasmodium falciparum
Procedure: as §8

[9] = molecular target: T1, CYP450 2D6 (Homo sapiens, UniProt P10635); test: CYP450 inhibition kit (drug-drug interaction), 2D6; assay type: biochemical
T1 construct: purchased BD Gentest (Franklin Lakes, NJ)
T1 sequence (P10635 whole entry): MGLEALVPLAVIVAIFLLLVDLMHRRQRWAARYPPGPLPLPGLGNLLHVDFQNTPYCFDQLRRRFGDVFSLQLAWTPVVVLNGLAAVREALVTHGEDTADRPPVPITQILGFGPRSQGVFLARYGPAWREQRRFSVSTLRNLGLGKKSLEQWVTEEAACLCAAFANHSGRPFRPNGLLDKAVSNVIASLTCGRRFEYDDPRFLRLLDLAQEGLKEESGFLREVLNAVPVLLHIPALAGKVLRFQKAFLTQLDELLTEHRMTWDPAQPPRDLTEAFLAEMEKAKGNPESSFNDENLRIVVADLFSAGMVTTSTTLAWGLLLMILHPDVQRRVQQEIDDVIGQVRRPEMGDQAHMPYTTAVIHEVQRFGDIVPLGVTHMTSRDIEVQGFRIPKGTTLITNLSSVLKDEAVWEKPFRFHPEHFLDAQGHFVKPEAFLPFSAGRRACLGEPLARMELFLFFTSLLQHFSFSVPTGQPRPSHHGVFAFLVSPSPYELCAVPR
Procedure: as §1, with “Low” for “Interesting compounds were also submitted for drug-drug interaction and metabolic stability assays. Low”

[10] = in vitro; conditions: mouse; remark: listed apart in the source
Procedure: as §9

[11] = molecular target: T2, CYP450 3A4 (Homo sapiens, UniProt P08684); test: CYP450 inhibition kit (drug-drug interaction), 3A4; assay type: biochemical
T2 construct: purchased BD Gentest (Franklin Lakes, NJ)
T2 sequence (P08684 whole entry): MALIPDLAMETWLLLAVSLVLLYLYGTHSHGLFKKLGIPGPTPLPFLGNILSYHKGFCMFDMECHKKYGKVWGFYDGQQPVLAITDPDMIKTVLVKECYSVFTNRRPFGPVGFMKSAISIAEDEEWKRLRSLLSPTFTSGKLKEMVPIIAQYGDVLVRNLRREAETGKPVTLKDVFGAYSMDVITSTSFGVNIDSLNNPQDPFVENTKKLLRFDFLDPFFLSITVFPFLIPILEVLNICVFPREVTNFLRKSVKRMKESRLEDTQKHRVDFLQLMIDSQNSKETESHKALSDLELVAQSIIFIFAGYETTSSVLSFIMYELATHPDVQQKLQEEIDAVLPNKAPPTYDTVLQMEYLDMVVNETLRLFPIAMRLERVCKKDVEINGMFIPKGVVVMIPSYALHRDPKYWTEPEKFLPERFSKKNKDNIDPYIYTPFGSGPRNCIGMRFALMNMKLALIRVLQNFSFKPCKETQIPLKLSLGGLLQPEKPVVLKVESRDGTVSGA
Procedure: as §1, with “Low” for “Interesting compounds were also submitted for drug-drug interaction and metabolic stability assays. Low”

[12] = molecular target: T3, CYP450 2C19 (Homo sapiens, UniProt P33261); test: CYP450 inhibition kit (drug-drug interaction), 2C19; assay type: biochemical
T3 construct: purchased BD Gentest (Franklin Lakes, NJ)
T3 sequence (P33261 whole entry): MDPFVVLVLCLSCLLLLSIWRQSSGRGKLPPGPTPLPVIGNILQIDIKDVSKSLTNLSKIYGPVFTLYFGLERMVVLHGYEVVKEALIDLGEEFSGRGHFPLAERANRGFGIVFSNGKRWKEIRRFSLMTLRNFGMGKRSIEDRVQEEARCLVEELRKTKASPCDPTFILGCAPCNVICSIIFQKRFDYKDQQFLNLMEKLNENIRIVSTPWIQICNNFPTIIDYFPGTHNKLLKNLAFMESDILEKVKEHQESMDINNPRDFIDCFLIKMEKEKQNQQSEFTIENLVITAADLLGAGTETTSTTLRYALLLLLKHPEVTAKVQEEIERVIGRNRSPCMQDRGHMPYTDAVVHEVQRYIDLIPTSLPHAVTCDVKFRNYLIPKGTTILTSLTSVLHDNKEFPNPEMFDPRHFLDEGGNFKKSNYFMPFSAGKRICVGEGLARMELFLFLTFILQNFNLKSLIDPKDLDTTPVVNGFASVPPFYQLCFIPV
Procedure: as §1, with “Low” for “Interesting compounds were also submitted for drug-drug interaction and metabolic stability assays. Low”

[13] = molecular target: T4, CYP450 1A2 (Homo sapiens, UniProt P05177); test: CYP450 inhibition kit (drug-drug interaction), 1A2; assay type: biochemical
T4 construct: purchased BD Gentest (Franklin Lakes, NJ)
T4 sequence (P05177 1-516): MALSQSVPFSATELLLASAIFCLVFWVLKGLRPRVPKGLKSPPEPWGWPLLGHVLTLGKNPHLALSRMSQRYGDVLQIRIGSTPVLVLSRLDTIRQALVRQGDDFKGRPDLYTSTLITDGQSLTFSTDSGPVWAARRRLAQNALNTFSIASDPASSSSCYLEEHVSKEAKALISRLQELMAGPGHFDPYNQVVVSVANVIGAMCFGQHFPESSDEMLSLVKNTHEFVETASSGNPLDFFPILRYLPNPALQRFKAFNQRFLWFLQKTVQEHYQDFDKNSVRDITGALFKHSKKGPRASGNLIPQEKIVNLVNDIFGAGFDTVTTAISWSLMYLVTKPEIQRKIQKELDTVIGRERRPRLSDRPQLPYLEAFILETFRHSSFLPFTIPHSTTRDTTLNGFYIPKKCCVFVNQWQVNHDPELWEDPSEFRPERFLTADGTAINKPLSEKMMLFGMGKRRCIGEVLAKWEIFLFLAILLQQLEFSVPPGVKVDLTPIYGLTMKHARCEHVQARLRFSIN
Procedure: as §1, with “Low” for “Interesting compounds were also submitted for drug-drug interaction and metabolic stability assays. Low”

[14] = system: rodent macrophage (RAW) cell line; test: cells; conditions: Mus musculus, Macrophage, read-out: Macrophage IC50
Procedure: as §9

[15] = molecular target: T5, CYP450 2C9 (Homo sapiens, UniProt P11712); test: CYP450 inhibition kit (drug-drug interaction), 2C9; assay type: biochemical
T5 construct: purchased BD Gentest (Franklin Lakes, NJ)
T5 sequence (P11712 whole entry): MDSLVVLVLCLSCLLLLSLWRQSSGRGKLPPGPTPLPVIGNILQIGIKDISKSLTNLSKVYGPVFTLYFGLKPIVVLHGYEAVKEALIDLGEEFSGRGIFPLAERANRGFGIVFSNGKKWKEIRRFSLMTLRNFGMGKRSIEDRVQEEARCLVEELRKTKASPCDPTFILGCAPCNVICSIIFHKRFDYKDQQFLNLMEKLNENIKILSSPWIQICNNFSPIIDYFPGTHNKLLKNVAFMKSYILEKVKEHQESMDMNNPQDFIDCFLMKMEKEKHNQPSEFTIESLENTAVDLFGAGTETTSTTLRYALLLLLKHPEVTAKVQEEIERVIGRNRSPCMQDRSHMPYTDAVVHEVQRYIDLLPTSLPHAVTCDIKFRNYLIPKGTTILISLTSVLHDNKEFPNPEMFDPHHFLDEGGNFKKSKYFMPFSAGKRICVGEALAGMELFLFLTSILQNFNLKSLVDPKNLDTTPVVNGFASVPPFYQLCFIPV
Procedure: as §1, with “Low” for “Interesting compounds were also submitted for drug-drug interaction and metabolic stability assays. Low”

[16] = D6, read-out: IC90 Pf D6, P. falciparum D6, mefloquine: historical mean +/- SD (n)
[17] = Plasmodium falciparum, TM90C2A, read-out: IC90 Pf C2A
[18] = Plasmodium falciparum, TM90C2A; read-out: IC90 PfC2A
[19] = D6, read-out: PF D6 IC90, P. falciparum D6
[20] = Plasmodium falciparum, TM90C2A, read-out: IC90 PfC2A
[21] = Plasmodium falciparum, TM90C2A, read-out: PF C2A IC90
[22] = Plasmodium falciparum, TM90C2A, read-out: Pf C2A IC90 nM values calculated using MW in Column C

SMILES | % recovery (MDCK-MDR1 permeability assay) [2] | Papp A→B at 2 h, 5 μM [3] | IC90 ([4]; W2, read-out: IC90 Pf W2) | IC90 [6, 16] | IC90 [7, 17] | IC90 [7, 18] | IC90 ([8]; read-out: IC90 Pf C235) | half-life at 1 μM [1] | IC50 [9] | CC50 [10] | IC50 [11] | IC90 ([4]; W2, read-out: PF W2 IC90) | IC50 [12] | IC50 [13] | IC50 [14] | IC90 [6, 19] | IC50 [15] | IC90 [7, 21] | CSI (C2A/W2) ([7]; ratio of IC90 C2A to IC90 W2) | IC90 ([8]; read-out: PF C235 IC90) | other results
CCCCNCC(O)c1cc(C(F)(F)F)nc2c(C(F)(F)F)cccc12 (racemic) [WR177000] | 58% | 25.4 ×10⁻⁶ cm/s | 1.7 ng/mL (≈ 0.00447 µM) | 0.0067 µg/mL (≈ 0.0176 µM) | 0.0123 µg/mL | 32 nM | 0.0089 µg/mL (≈ 0.0234 µM) | – | – | – | – | – | – | – | – | – | – | – | – | – | HL in Microsomes ([1]; Figure 3, species of microsomes not given): 37 min; CC50 [5]: 2.78 µg/mL (≈ 7.31 µM)
C=CCNCC(O)c1cc(C(F)(F)F)nc2c(C(F)(F)F)cccc12 (stereo not shown) [WR308255] | – | – | 3.8 ng/mL (≈ 0.0104 µM) | 0.015 µg/mL (≈ 0.0412 µM) | 0.037 µg/mL | – | 0.019 µg/mL (≈ 0.0522 µM) | 25 min | 2900 nM | > 120 µM | 18 µM | 3.75 ng/mL (≈ 0.0103 µM) | 25 µM | 1500 nM | 58.4 µM | 0.0145 µg/mL (≈ 0.0398 µM) | 25 µM | 0.0368 µg/mL | 9.8 | 0.0187 µg/mL (≈ 0.0513 µM) | IC90 [7, 20]: 101 nM; IC90 [7, 22]: 101 nM
OC(CNC1CCC1)c1cc(C(F)(F)F)nc2c(C(F)(F)F)cccc12 (stereo not shown) [WR308266] | – | – | 6.1 ng/mL (≈ 0.0161 µM) | 0.025 µg/mL (≈ 0.0661 µM) | 0.052 µg/mL | – | 0.024 µg/mL (≈ 0.0634 µM) | 22 min | 1400 nM | 59 µM | 5.7 µM | 6.09 ng/mL (≈ 0.0161 µM) | 7.6 µM | 2400 nM | 13.1 µM | 0.0245 µg/mL (≈ 0.0647 µM) | 12 µM | 0.0517 µg/mL | 8.5 | 0.0243 µg/mL (≈ 0.0643 µM) | IC90 [7, 20]: 137 nM; IC90 [7, 22]: 137 nM
CCC(C)CNCC(O)c1cc(C(F)(F)F)nc2c(C(F)(F)F)cccc12 (stereo not shown) [WR308387] | 42% | 18 ×10⁻⁶ cm/s | 1.2 ng/mL (≈ 0.00304 µM) | 0.007 µg/mL (≈ 0.0178 µM) | 0.011 µg/mL | 26 nM | 0.012 µg/mL (≈ 0.0304 µM) | 20 min | 2000 nM | > 120 µM | > 40 µM | 1.19 ng/mL (≈ 0.00302 µM) | 7 µM | 2100 nM | 20.8 µM | 0.00695 µg/mL (≈ 0.0176 µM) | 11 µM | 0.011 µg/mL | 9.2 | 0.0116 µg/mL (≈ 0.0293 µM) | –

Reference: PMC2833169, “Anti-malarial activity of a non-piperidine library of next-generation quinoline methanols” (Malaria Journal, 2010)
